The source of these data is patent US20220289678A1, “COMPOUND, POLYMER, AND ORGANIC MATERIAL, AND OPTICAL APPARATUS, OPTICAL PART, AND IMAGE DISPLAY APPARATUS USING THE ORGANIC MATERIAL” (Sony Group Corporation, priority 2019, published 2022).

Like-named read-outs stand apart in the source and are kept apart here.

A short description of data set [1]: Refractive index of compound, Abbe refractometer, calibration curve extrapolated. It is filed as physicochemical. Conditions: for Refractive index: average refractive index to light of 589 nm, 25±1° C., acetone or chloroform solution, extrapolated to volume fraction 1; for Refractive index compared with compound (11-1) according to Test Example 15: comparison in words. The method, then:
Note that the refractive index can be measured by a critical angle method or a spectroscopic ellipsometry method. For example, in the critical angle method, measurement can be performed using an Abbe refractometer ER-1 manufactured by ERMA INC (measurement wavelengths are measured in visible light areas using 486 nm, 589 nm, 656 nm, and the like).
(§1) An acetone solution or a chloroform solution of each of the compounds according to Test Examples 1 to 15 was prepared, and the average refractive index to light of 589 nm at room temperature of 25±1° C. was measured by an Abbe refractometer (manufactured by ERMA INC., ER-1), and plotted against the volume fraction of each compound to prepare a calibration curve. Note that as the density of each compound, a value determined by a dry densitometer (AccuPyc II 1340-10CC (manufactured by Shimadzu Corporation)) was used. The calibration curve was extrapolated, and the refractive index when the volume fraction of each compound became 1 was used as the refractive index of each compound. The measurement results of the refractive index and density (g/cm^3) of each of the compounds according to Test Examples 1 to 15 are shown in Table 1 below.

Data set [2] in a line: Density by dry densitometer. It is filed as physicochemical. Conditions: dry densitometer AccuPyc II 1340-10CC. The protocol:
as §1

The nature of data set [3]: Solubility in organic solvent, visual dissolution. It is filed as physicochemical. Conditions: ultrasonic stirring. The method, then: 20 mg of each of the compounds according to Test Examples 1 to 15 was weighed into a vial bottle, acetone was added to make a total amount of […], and then, the mixture was stirred with ultrasonic waves for 30 seconds. In the case where there was an undissolved product by visual recognition, a small amount of acetone was added thereto, and the mixture was stirred for another 30 seconds. The task described above was repeated, and the solubility was calculated from the total amount of solvents when all were dissolved.

The conditions of data set [4]: commercial product, Osaka Gas Chemical Co., Ltd.; cited from earlier work.

As to `C=CC(=O)OCCOc1cc(OCCOC(=O)C=C)cc(-n2c3ccccc3c3c4ccccc4ccc32)c1` [(10-12)], in data set [1], the Refractive index is 1.69 and the “Refractive index compared with compound (11-1) according to Test Example 15” value (shortened to “Refractive index compared with compound”) is recorded as “higher than the refractive index of the compound (11-1)”. The compound also yielded a Density in data set [2] of 1.26 g/mL.
On to `C=CC(=O)Oc1cc(CCn2c3ccc4ccccc4c3c3c4ccccc4ccc32)cc(OC(=O)C=C)c1` [(10-2)], for which, in data set [1], the Refractive index is 1.73 and the “Refractive index compared with compound” value was “higher than the refractive index of the compound (11-1)”. Besides, the “Solubility Acetone” value in data set [3] amounted to 20 wt %. In data set [2], this compound gave a Density of 1.29 g/mL.
As for `C=CC(=O)Oc1cc(Cn2c3ccc4ccccc4c3c3c4ccccc4ccc32)cc(OC(=O)C=C)c1` [(10-1)], the “Refractive index compared with compound” value in data set [1] is given as “higher than the refractive index of the compound (11-1)”. In addition, in data set [3], the “Solubility Acetone” value is recorded as 5 wt % and the “Solubility Chloroform” value was 17 wt %. The Density in data set [2] was 1.3 g/mL.
As to “bisphenoxyethanol fluorene diacrylate [EA-0200]”, in data set [4], the Refractive index is given as 1.62.
For `C=CC(=O)OCCn1c2ccccc2c2ccccc21` [(11-1), acrylic acid 2-(9H-carbazol-9-yl) ethyl, reference compound], in data set [1], the Refractive index is 1.68. Also, the “Solubility Acetone” value in data set [3] was 44 wt %. The same compound displayed a Density in data set [2] of 1.21 g/mL.
On to `C=CC(=O)OCCOCC(Cn1c2ccc3ccccc3c2c2c3ccccc3ccc21)OCCOC(=O)C=C` (centres unmarked) [(10-6)], for which the “Refractive index compared with compound” value in data set [1] was “higher than the refractive index of the compound (11-1)”.
Consider `C=C(C)C(=O)OCCOCC(Cn1c2ccc3ccccc3c2c2c3ccccc3ccc21)OCCOC(=O)C(=C)C` (centres unmarked) [(10-7)], for which, in data set [1], the “Refractive index compared with compound” value is “higher than the refractive index of the compound (11-1)”.
On to `C=CC(=O)OCCn1c2ccccc2c2c3ccccc3ccc21` [(10-8)], for which, in data set [1], the Refractive index is given as 1.74 and the “Refractive index compared with compound” value is “higher than the refractive index of the compound (11-1)”. Moreover, the “Solubility Acetone” value in data set [3] was found to be 18 wt %. This compound yielded a Density in data set [2] of 1.3 g/mL.
Take `C=CC(=O)Oc1cc(OC(=O)C=C)cc(-n2c3ccc4ccccc4c3c3c4ccccc4ccc32)c1` [(6-8)]: the “Refractive index compared with compound” value in data set [1] was “higher than the refractive index of the compound (11-1)”. Moreover, the “Solubility Acetone” value in data set [3] is 3 wt %. Further, the Density in data set [2] worked out at 1.31 g/mL.
With `C=CC(=O)OCCOc1cc(Cn2c3ccc4ccccc4c3c3c4ccccc4ccc32)cc(OCCOC(=O)C=C)c1` [(10-3)], in data set [1], the Refractive index is on record as 1.71 and the “Refractive index compared with compound” value is listed as “higher than the refractive index of the compound (11-1)”. Moreover, in data set [2], the Density amounted to 1.29 g/mL.
`C=C(C)C(=O)OCC(Cn1c2ccc3ccccc3c2c2c3ccccc3ccc21)OC(=O)C(=C)C` (centres unmarked) [(10-5)]: in data set [1], the Refractive index is reported as 1.72 and the “Refractive index compared with compound” value is given as “higher than the refractive index of the compound (11-1)”. The “Solubility Chloroform” value in data set [3] came out at 19 wt %. The compound further came in with a Density in data set [2] of 1.26 g/mL.
On to `C=CC(=O)OCCn1c2ccc3ccccc3c2c2c3ccccc3ccc21` [(6-3)], for which, in data set [1], the “Refractive index compared with compound” value is recorded as “higher than the refractive index of the compound (11-1)”. This compound returned a Density in data set [2] of 1.22 g/mL.
Consider `C=CC(=O)OCCCCOc1cc(OCCCCOC(=O)C=C)cc(-n2c3ccc4ccccc4c3c3c4ccccc4ccc32)c1` [(10-11)], for which, in data set [1], the “Refractive index compared with compound” value was “higher than the refractive index of the compound (11-1)”.
As to `C=CC(=O)OCCOc1cc(OCCOC(=O)C=C)cc(-n2c3ccc4ccccc4c3c3c4ccccc4ccc32)c1` [(10-10)], in data set [1], the “Refractive index compared with compound” value was “higher than the refractive index of the compound (11-1)”. In addition, in data set [2], the Density is 1.27 g/mL.
Consider `C=CC(=O)OCC(Cn1c2ccc3ccccc3c2c2c3ccccc3ccc21)OC(=O)C=C` (centres unmarked) [(10-4)], for which, in data set [1], the Refractive index is given as 1.72 and the “Refractive index compared with compound” value was “higher than the refractive index of the compound (11-1)”. In addition, in data set [2], the Density was determined as 1.22 g/mL.
Take `C=CC(=O)OCCn1c2ccccc2c2ccc3ccccc3c21` [(10-9)]: in data set [1], the Refractive index is 1.74 and the “Refractive index compared with compound” value was “higher than the refractive index of the compound (11-1)”. Besides, in data set [3], the “Solubility Acetone” value came out at 5 wt % and the “Solubility Chloroform” value is given as 13 wt %. For the same compound, in data set [2], the Density was 1.31 g/mL.
